This is an account of results in patent US20220339180A1, “Methods And Compositions For Treating Viral Diseases Using Combination Of Drugs” (priority 2021, published 2022).

Data set [1] concerns the target T1, human Akt2 (Homo sapiens, UniProt P31751). The note with it: read-out: Km for ATP; human Akt2, previously reported studies; cited from earlier work.
For data set [2], the target named is CoV-2 RdRp (Severe acute respiratory syndrome coronavirus 2, UniProt P0DTD1). Format: biochemical, SARS-CoV-2.
Data set [3] deals with T1, human Akt2. The data set is described as follows: ADP-Glo Kinase assay, human Akt2. The format is biochemical. The conditions noted are these: 500 nM compound, excess of ATP.
For data set [4], the system named is SARS-CoV-2. The format is cell-based.
Substrate in data set [5]: Nc1ncnc2c1ncn2[C@@H]1O[C@H](COP(=O)(O)OP(=O)(O)OP(=O)(O)O)[C@@H](O)[C@H]1O
The data set is described as follows: purified protein, by the assay type. The note with it: other: human Akt2.

Like-named read-outs stand apart in the source and are kept apart here.

Consider `Nc1ncnc2c1ncn2[C@@H]1O[C@H](COP(=O)(O)OP(=O)(O)OP(=O)(O)O)[C@@H](O)[C@H]1O` [ATP, Adenosine triphosphate], for which the Km – broadly, the substrate concentration at which the rate is half of its maximum – in data set [1] is approximately 350 µM.

As for `CN(C)S(=O)(=O)c1ccc2c(c1)/C(=C/c1cc3c([nH]1)CCCC3)C(=O)N2` [SU6656], the “inhibition of kinase like activity of CoV-2 RdRp” value (shortened to “inhibition … of CoV-2 RdRp”) in data set [2] is reported as “significantly abrogated”. In data set [3], the “inhibition of kinase activity of human Akt2” value was “significantly inhibited”.

For the molecule `CNC(=O)c1cc(Oc2ccc(NC(=O)Nc3ccc(Cl)c(C(F)(F)F)c3)cc2)ccn1` [Sorafenib], the “inhibition of kinase activity of human Akt2” value in data set [3] is given as “significantly inhibited”. The “cell survival of SARS-CoV-2 infected epithelial cells” value in data set [4] (1, 5, 25 and 50 μM, concentrations similar to Remdesivir) is recorded as “improves cell survival”. For the same molecule, the “reduction in the infection” value in data set [4] (1-50 μM, Remdesivir as control) is reported as “significant reduction in the infection”. Also, in data set [4] (Sorafenib 4 μM or remdesivir 1 μM alone), the “clearing of virus from infected cells, single agent” value was “have effect to clear the virus”. In addition, the viral load entry in data set [4] (ex-vivo SARS-CoV-2 infection in cell line) is “significantly reduces viral load”.

`CC(Cc1ccc(O)c(O)c1)C(C)Cc1ccc(O)c(O)c1` (stereo not drawn) [compound 4534, Nordihydroguaiaretic acid]: the “inhibition … of CoV-2 RdRp” value in data set [2] is “failed to inhibit”.

`NC(=O)c1ncn([C@@H]2O[C@H](COP(=O)(O)OP(=O)(O)OP(=O)(O)O)[C@@H](O)[C@H]2O)n1` [compound 122108, Ribavirin 5′-triphosphate]: the “inhibition … of CoV-2 RdRp” value in data set [2] (500 nM compound, excess of ATP) is “very little effects”; in data set [2] (1000 nM compound), “conspicuous inhibitions”.

B1: human Akt2 (Homo sapiens) (protein)
chain: MNEVSVIKEGWLHKRGEYIKTWRPRYFLLKSDGSFIGYKERPEAPDQTLPPLNNFSVAECQLMKTERPRPNTFVIRCLQWTTVIERTFHVDSPDEREEWMRAIQMVANSLKQRAPGEDPMDYKCGSPSDSSTTEEMEVAVSKARAKVTMNDFDYLKLLGKGTFGKVILVREKATGRYYAMKILRKEVIIAKDEVAHTVTESRVLQNTRHPFLTALKYAFQTHDRLCFVMEYANGGELFFHLSRERVFTEERARFYGAEIVSALEYLHSRDVVYRDIKLENLMLDKDGHIKITDFGLCKEGISDGATMKTFCGTPEYLAPEVLEDNDYGRAVDWWGLGVVMYEMMCGRLPFYNQDHERLFELILMEEIRFPRTLSPEAKSLLAGLLKKDPKQRLGGGPSDAKEVMEHRFFLSINWQDVVQKKLLPPFKPQVTSEVDTRYFDDEFTAQSITITPPDRYDSLGLLELDQRTHFPQFSYSASIRE
For B1, the Km in data set [5] was found to be 300 µM.
